The test system of one assay is Src family kinases. In words: Tyrosine phosphorylation of PIPKIγ661 in cells with Src-specific inhibitor. The format is cell-based. An excerpt:
In the FAK signaling pathway, Src family tyrosine kinases bind to and are activated by FAK, playing a fundamental role in focal adhesion organization (Parsons, et al. (2000) Oncogene 19:5606-5613; Cobb, et al (1994) Mol. Cell. Biol. 14:147-155; Schaller, et al. (1994) Mol. Cell. Biol. 14:1680-1688; Schaller, et al. (999) Mol. Cell. Biol. 10:3489-3505). To determine if Src family kinases phosphorylate PIPKIγ661, Src-specific inhibitor PP2 was employed. […] PIPKIγTyr^649->Phe is efficiently phosphorylated by c-Src.
HEK 293T cells and NRK cells were cultured in Dulbecco's modified Eagle's medium (DMEM) (Mediatech, Inc., Herndon, Va.) supplemented with 10% fetal bovine serum (INVITROGEN™, Carlsbad, Calif.) and antibiotics. NRK cells were transfected using FUGENE™ 6 (Roche, Indianapolis, Ind.) according to manufacturer's instructions for 24 hours. […]
Immunoprecipitation was performed using standard methods (Zhang, et al. (1997) J. Biol. Chem. 272:17756-17761). […] The immunocomplexes were washed with Buffer A, separated by SDS-polyacrylamide gel electrophoresis (SDS-PAGE), and analyzed as indicated. […]

The next assay addresses T1, GST-talin head (Homo sapiens, UniProt Q9Y490).
T1 construct: Human talin1 head region (1-435) was cloned from HEK293T cells by PCR and subcloned into pET42; made in house; host or cells: E. coli BL21(DE3)
In words: GST pull-down competition: displacement of His-β1-integrin tail from GST-talin head. The class given is binding. As to conditions: for binding affinity for talin compared with unphosphorylated peptide PN: binding assay between talin and integrin (FIG. 2); for binding affinity to talin of phosphorylated β1-integrin peptides: competing integrin tail binding from talin. As to the method:
Talin interactions were assessed by GST pull-down using recombinant GST-talin head, His-PIPKIγ635 C-terminus, His-PIPKIγ661 wild-type or Tyr to Phe mutant C-terminus, and His-β1-integrin tail. […] Peptides containing the PIPKIγ661/talin binding sequence (Di Paolo, et al. (2002) supra) were designed to include phosphorylated Tyr^644, phosphorylated Tyr^649, and dual phosphorylated Tyr^644 and Tyr^649.
In a screening assay to identify an agent which modulates the activity of PIPKIγ661 as defined by the binding interaction between PIPKIγ661 and talin, the step of detecting the activity of PIPKIγ661 is carried out by detecting and measuring the binding of PIPKIγ661 to talin. The detection and measurement of this binding interaction will be dependent on the type of screening assay performed and the labels used. Such screening assays to detect binding between two proteins in the presence of a test agent are well-known in the art. […] An exemplary binding assay of this type was conducted using PIPKIγ661 peptides of the sequence Cys-Asp-Glu-Arg-Scr-[…](peptide designated PN; SEQ ID NO:12) which are encompassed within the C-terminal 25 amino acid residues of PIPKIγ661 and interact with talin at the same site as integrin. […] Fluorescent probes may be linked to the cysteine residue using conventional thiol or thiolester linkages. […] In this assay, an agent which is an inhibitor of the interaction between PIPKIγ661 and talin blocks binding of a peptide of SEQ ID NO:12 and changes the fluorescent emission anisotropy as compared to a control (e.g., binding in the absence of the inhibitor).
(§1) Purified GST-talin head proteins were incubated with PIPKIγ661 tails or β1-integrin tail, together with Glutathione SEPHAROSE™ 4 Fast Flow (Amersham Biosciences, Piscataway, N.J.), in Buffer B (PBS, 0.2% NP-40, 2 mM DTT) at 4° C. for 4 hours. The beads were washed three times with Buffer B and analyzed by western blot. For competition assays, GST-talin head proteins were incubated with peptides or competing proteins for 2 hours, then the binding proteins were added and the mixtures were incubated for another 4 hours.

The next assay concerns the target GST-talin Lys^357->Gln (Homo sapiens, UniProt Q9Y490, K357Q). The conditions noted are these: peptide competing His-PIPKIγ661 binding.
Text: (§2) From structural studies of integrin binding to talin, a conserved tryptophan in β-integrin tail is positioned near two basic residues, Lys^357 and Arg^358 of talin F3 lobe (Garcia-Alvarez, et al. (2003) supra). […] The role of PIPKIγ661 phosphorylation was examined by using phosphorylated peptides to compete His-PIPKIγ661 binding to wild-type or mutant GST-talin. […] To further analyze this, β1-integrin peptides phosphorylated at Thr of Trp-Asp-Thr and at Tyr of Asn-Pro-Ile-Tyr (SEQ ID NO: 1) were synthesized and used to compete integrin tail binding from talin.
(§3) Human talin1 head region (1-435) was cloned from HEK293T cells by PCR and subcloned into pET42. The C-terminal truncated or site-directed mutagenesis for the PIPKIγ661 mutants or talin head was performed using PCR-primer overlap extension with mutagenic primers. PIPKIγ661 mutants were then subcloned into pcDNA3.1 and talin head mutants were subcloned into pET42. His-tagged mouse β1-integrin tail was made using well-established methods (Pfaff, et al. (1998) supra) and subcloned into pET28. The C-terminus of PIPKIγ635 (439-635), PIPKIγ661 (439-661), or the Tyr to Phe mutants of PIPKIγ661 were PCR amplified from the corresponding pcDNA3.1 constructs and subcloned into pET28. […] FAK, FAKTyr397Phe, kinase dead FAK and c-Src constructs were generated using well-known methods.
as §1

A further assay has as its target GST-talin Arg^358->Gln (Homo sapiens, UniProt Q9Y490, R358Q). The conditions noted are these: peptide competing His-PIPKIγ661 binding.
Text: as §2, §3, §1

A further assay deals with HEK293T cells. Nature of the assay: Co-immunoprecipitation of talin with PIPKIγ661 from suspended HEK293T cells after stimulation. The class given is cell-based. The conditions noted are these: stimulated. Here is the method:
The association between PIPKIγ661 and talin was also regulated by adhesion to type I collagen. […] However, in suspended cells, the PIPKIγ661 association with talin was restored when cells were stimulated with lysophosphatidic acid (LPA) or platelet-derived growth factor (PDGF).
Immunoprecipitation was performed using standard methods (Zhang, et al. (1997) J. Biol. Chem. 272:17756-17761). Briefly, transfected HEK293T cells were harvested and lysed in Buffer A (50 mM Tris-HCl, pH 7.5, 150 mM NaCl, 0.1-1.0% NP-40, 5.0 mM NaF, 2 mM Na3VO4, 4 mM Na2P2O7, 1 mM EDTA, 0.1 mM EGTA, 1 mM phenylmethyl sulphonyl fluoride (PMSF), 10% glycerol), centrifuged and incubated with protein A—Sepharose and 5 μg anti-HA, anti-c-Myc, anti-Flag, anti-PIPKIγ or anti-talin antibody as indicated at 4° C. for 4 hours to overnight. The immunocomplexes were washed with Buffer A, separated by SDS-polyacrylamide gel electrophoresis (SDS-PAGE), and analyzed as indicated. For the kinase assay, the immunocomplexes were washed and stored in kinase buffer.
Transfected HEK 293T cells were washed with phosphate-buffer saline (PBS) and detached with 0.25% trypsin at 37° C. The cells were harvested and washed with PBS, and suspended in serum-free DMEM at 37° C. for 1 hour. […]

T1 sequence (Q9Y490 1-435): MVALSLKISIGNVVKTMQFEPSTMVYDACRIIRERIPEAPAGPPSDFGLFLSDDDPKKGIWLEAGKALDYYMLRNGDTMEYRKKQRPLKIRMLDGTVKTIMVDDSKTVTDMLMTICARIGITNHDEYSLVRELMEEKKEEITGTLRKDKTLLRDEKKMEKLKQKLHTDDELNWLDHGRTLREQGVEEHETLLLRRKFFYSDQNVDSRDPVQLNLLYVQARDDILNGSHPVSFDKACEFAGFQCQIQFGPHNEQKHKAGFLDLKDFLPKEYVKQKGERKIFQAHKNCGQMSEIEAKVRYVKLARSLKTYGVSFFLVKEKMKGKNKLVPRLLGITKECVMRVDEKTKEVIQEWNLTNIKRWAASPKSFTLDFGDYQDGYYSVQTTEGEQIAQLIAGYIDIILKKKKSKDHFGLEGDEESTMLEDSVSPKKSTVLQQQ
Sequence of GST-talin Arg^358->Gln (Q9Y490 1-435 R358Q): as the sequence (Q9Y490 1-435) above, with R358Q counted along it
Sequence of GST-talin Lys^357->Gln (Q9Y490 1-435 K357Q): as the sequence (Q9Y490 1-435) above, with K357Q counted along it

In the case of `CC(C)(C)n1nc(-c2ccc(Cl)cc2)c2c(N)ncnc21` [PP2], in the assay on Src family kinases (FAK-induced), the “FAK-induced tyrosine phosphorylation of PIPKIγ661” value was “dramatically inhibited”. The “basal tyrosine phosphorylation of PIPKIγ661” value in the assay with Src family kinases (basal) was “dramatically inhibited”. For the molecule “Cys-As-Glu-Arg-Ser-Trp-Val-*Tyr-Ser-Pro-Leu-His-Tyr-Ser-Ala-Arg [pY644]”, the “binding affinity for talin compared with unphosphorylated peptide PN” value at GST-talin head is recorded as “higher binding affinity”. Further, the “affinity of binding to talin mutant Lys^357->Gln” value at GST-talin Lys^357->Gln is recorded as “retained high affinity binding”. Moreover, on GST-talin Arg^358->Gln, the “affinity of binding to talin mutant Arg^358->Gln” value is “loss of affinity”. “Cys-Asp-Glu-Arg-Ser-Trp-Val-*Tyr-Ser-Pro-Leu-His-*Tyr-Ser-Ala-Arg [pY644/649]”: on GST-talin head, the “binding affinity for talin compared with unphosphorylated peptide PN” value is listed as “higher binding affinity”. Turning to “Cys-Asp-Glu-Arg-Ser-Trp-Val-Tyr-Ser-Pro-Leu-His-*Tyr-Ser-Ala-Arg [pY649]”, at GST-talin head, the “binding affinity for talin compared with unphosphorylated peptide PN” value is given as “higher binding affinity”. The “affinity of binding to talin mutant Lys^357->Gln” value on GST-talin Lys^357->Gln is “lower affinity”. In addition, at GST-talin Arg^358->Gln, the “affinity of binding to talin mutant Arg^358->Gln” value is given as “loss of affinity”.

With “Cys-Asp-Glu-Arg-Ser-Trp-Val-Tyr-Ser-Pro-leu-His-Tyr-Ser-Ala-Arg [PN]”, the “displacement of His-β1-integrin from GST-talin” value on GST-talin head (in vitro) is on record as “poorly displaced”. Turning to “Cys-Met-Asn-Ala-Lys-Tp-Asp-Thr-Gly-Glu-Asn-Pro-Ile-*Tyr-Lys-Ser-Ala [β1 InpY]”, the “binding affinity to talin of phosphorylated β1-integrin peptides” value at GST-talin head is “lower binding affinity”. On the same count and under the same terms, under “Cys-Met-Asn-Ala-Lys-Trp-Asp-*T-Gly-Glu-Asn-Pro-Ile-Tyr-Lys-Ser-Ala [β1InpT]” stands “did not increase binding affinity”. For PDGF, the “PIPKIγ661 association with talin” value in the assay on HEK293T cells is recorded as “restored”.

“lysophosphatidic acid [LPA, reference compound]”: the “PIPKIγ661 association with talin” value in the assay with HEK293T cells is on record as “restored”.

B1: His-PIPKIγ661: recombinant His-tagged PIPKIγ661 wild-type C-terminus (439-661) (protein)
chain: MSSTVFRKSSSLKSSPSKKGRGALLAVKPLGPTAAFSASQIPSEREDVQYDLRGARSYPTLEDEGRPDLLPCTPPSFEEATTASIATTLSSTSLSIPERSPSDTSEQPRYRRRTQSSGQDGRPQEEPHAEDLQKITVQVEPVCGVGVVPKEEGAGVEVPPCGASAAASVEIDAASQASEPASQASDEEDAPSTDIYFPTDERSWVYSPLHYSARPASDGESDT
modifications: left off: small tags and cut ends
With B1, the “competition with His-β1-integrin for binding to GST-talin” value with GST-talin head (recombinant C-terminus proteins) is “competed with His-β1-integrin for binding to GST-talin in a dose-dependent manner”.

Source of the values: patent publication US7494784B2, “Method of treating cell-migration conditions or diseases” (Wisconsin Alumni Research Foundation, priority 2003, dated 2009).
